The results in this text go back to patent US20230405151A1, “USE OF IRAK4 MODULATORS FOR GENE THERAPY” (Genzyme Corporation, priority 2022, published 2023).

Data set [1] concerns Human monocytic dendritic cells. The data set is described as follows: LDH release assay (cell cytotoxicity). It is filed as cell-based. Particulars: 16 nM, 80 nM, 400 nM and 2000 nM with AAV.SAN024 MOI 1e5 24 hrs, versus untreated/uninfected cells. The method, then: (§1) IRAK4 targeting drugs and AAV Treatments. Dendritic cells were plated in 96 well plates with 200,000 cells per well. Each treatment was performed in triplicates. Cells were treated with zimlovisertib IRAK4 inhibitor (Synonyms: PF-06650833) Cat. No.: HY-19836 (MedChemExpress) and PROTAC IRAK4 degrader-1 Cat. No.: HY-129966 (MedChemExpress) at 16 nm, 80 nm, 400 nm and 2000 nm for 18 hrs at 37° C., 5% CO2 in an incubator. After pre-treatment of 18 hrs with the drugs, AAV vectors at 1e5 MOI were used. The cells were incubated at 37° C., 5% CO2 in an incubator for 24 hours. After 24 hours, plates were centrifuged and media supernatant was collected. The clarified media was analyzed by Meso Scale Discovery MSD (world wide web mesoscale.com/products/v-plex-proinflammatory-panel-1-human-kit-k15049d/) performed by DC3 therapeutics https://www.dc3therapeutics.com/services. […]
LDH Release Assay. Cell cytotoxicity was measured by release of lactate dehydrogenase (LDH) in media supernatants. LDH was quantified using Promega kit (Catalog #G1780) as per manufacturer's protocol. […] Stop Solution was added, and the absorbance signal is measured at 490 nm in a plate reader. https://www.promega.com/products/cell-health-assays/cell-viability-and-cytotoxicity-assays/cytotox-96-non_radioactive-cytotoxicity-assay/?catNum=G1780#protocols […]

Data set [2] relates to Human monocytic dendritic cells infected with AAV.SAN024. The data set is described as follows: Cytokine release (Meso Scale Discovery) from dendritic cells treated with IRAK4 modulators and infected with AAV. The data set is classed as cell-based. The following applies: for AAV-induced secretion of IL1b cytokine from dendritic cells: 80 nM, all doses. The method, then:
Preparation of peripheral blood mononuclear cells. Blood from leukopaks (Stem cell technologies) from different donors was decanted into 50 mL tubes and Dulbecco's phosphate buffered saline (DPBS) was added at a 1:1 ratio. The blood plus DBPS mix was gently pipetted into a separate 50 mL tube containing 15 mL Ficoll (GE17-5442-02) to ensure no mixing of the blood and Ficoll phases. The mixture was centrifuged at 2000 RPM for 25 minutes at room temperature (9 acceleration and no braking). The buffy coat containing the peripheral blood mononuclear cells (PBMCs) was collected, transferred to a new tube, and centrifuged for five minutes at 400 RCF. PBMCs were washed three times with phosphate buffered saline (PBS) containing 1% fetal bovine serum (FBS) or fetal calf serum (FCS) and counted.
Isolation of monocytes. CD14+ monocytes were isolated from the PBMCs using CD14 MicroBeads following the manufacturer's protocol (Miltenyi Biotech, Germany, order no. 130-050-201, protocol available online world wide web miltenyibiotec.com/upload/assets/IM0001260.PDF). Briefly, PBMCs were incubated with 20 μL of CD14 MicroBeads per 10^7 total cells for 15 minutes at 2-8° C. PBMCs were applied onto a magnetic column (Miltenyi; world wide web miltenyibiotec.com/US-en/products/ls-columns.html#130-042-401) and unlabeled cells were allowed to pass through. After washing the column three times, the column was removed from the magnetic separator, (Miltneyi; world wide web miltenyibiotec.com/US-en/products/quadromacs-separator-and-starting-kits.html#130-091-051) placed on a collection tube, and magnetically labeled CD14+ monocytes were flushed out by pushing a plunger into the column.
Differentiation of monocytes. CD14+ monocytes were differentiated into dendritic cells using ImmunoCult-ACF Dendritic Cell Media, Differentiation Supplement, and Maturation Supplement (Stem Cell Technologies, catalog #10986, #10988, and #10989; world wide web cdn.stemcell.com/media/Files/pis/DX20521-PIS_1_2_0.pdf?_ga=2.81451927.1035383195.1642105700-1174975582.1603298321) following the manufacturer's protocol available online. Briefly, purified CD14+ monocytes were added to Dendritic Cell Media containing the Differentiation Supplement and incubated at 37° C. for three days. On day 3, media was replaced with fresh Dendritic Cell media containing Differentiation Supplement and cells were incubated for two additional days. On day 5, Maturation Supplement was added to the cells at a 1 to 100 dilution (e.g. 50 μL supplement per 5 mL culture). Differentiated dendritic cells were harvested on day 7.
rAAV production and titration. rAAV vectors (AAV.SAN024 and AAV.SAN029) were produced using a standard triple transfection method (Sena-Esteves and Gao, Cold Spring Harb Protoc; doi:10.1101/pdb.top095513, 2020). All serotypes tested encode the same GFP transgene. Viruses were purified by cesium chloride ultracentrifugation and titrated using both silver staining and quantitative polymerase chain reaction (qPCR).
as §1, with “After pre-treatment of 18 hrs with the drugs, AAV vectors at 1e5 MOI were used.” left out, “https://www.dc3therapeutics.com/services. The experiment outline of PBMC isolation, monocyte purification and dendritic cell differentiation is illustrated in FIG. 1.” for “https://www.dc3therapeutics.com/services.”

[3] abbreviates: co-treated with 16 nM, 400 nM and 2000 nM and AAV.SAN024 MOI 1e5 at the same time, 24 hrs.
Setting [4] is: co-treated with 16-2000 nM and AAV.SAN024 MOI 1e5, 24 hrs.
Where [5] appears, read: pre-treated 18 hrs with 16 nM, 400 nM and 2000 nM, then AAV.SAN024 MOI 1e5 24 hrs, three donors.
Where [6] appears, read: pre-treated 18 hrs with 16-2000 nM, then AAV.SAN024 MOI 1e5 24 hrs.

Consider `O=C1CCC(N2C(=O)c3cccc(NCc4cn(CCCNC(=O)c5ccc(-n6cc(NC(=O)c7coc(-c8ccnc(NCC9CC9)c8)n7)c(C(F)(F)F)n6)cc5)cn4)c3C2=O)C(=O)N1` (centres unmarked) [PROTAC IRAK4 degrader-1], for which the “Cellular toxicity (LDH release in media supernatants)” value in data set [1] is “no cellular toxicity”. Also, the “AAV-induced secretion of IL1b cytokine from dendritic cells” value in data set [2] (setting [3]) and in data set [2] (setting [5]) was “blocked” throughout. In addition, the “AAV-induced IL6 release from dendritic cells” value in data set [2] (setting [4]) and in data set [2] (setting [6]) was “Cytokine block was also observed” throughout. The “AAV-induced TNFα release from dendritic cells” value in data set [2] (setting [4]) and in data set [2] (setting [6]) was “Cytokine block was also observed” throughout.
For the molecule `CC[C@@H]1[C@H](F)C(=O)N[C@@H]1COc1nccc2cc(C(N)=O)c(OC)cc12` [zimlovisertib, 1-[[(2S,3S,4S)-3-Ethyl-4-fluoro-5-oxo-2-pyrrolidinyl]methoxy]-7-methoxy-6-isoquinolinecarboxamide], in data set [1], the “Cellular toxicity (LDH release in media supernatants)” value is recorded as “no cellular toxicity”. Moreover, the “AAV-induced secretion of IL1b cytokine from dendritic cells” value in data set [2] (setting [3]) and in data set [2] (setting [5]) was “blocked” each time. Also, the “AAV-induced IL6 release from dendritic cells” value in data set [2] (setting [4]) and in data set [2] (setting [6]) was “Cytokine block was also observed” each time. For the same molecule, the “AAV-induced TNFα release from dendritic cells” value in data set [2] (setting [4]) and in data set [2] (setting [6]) was “Cytokine block was also observed” throughout.
